pKd: −log10 of the molar value.
Biological target: Heat shock protein HSP 90-beta (Homo sapiens, UniProt P08238)
Experiment: Binding affinity to human recombinant HSP90

Sequence of Heat shock protein HSP 90-beta (P08238 whole entry): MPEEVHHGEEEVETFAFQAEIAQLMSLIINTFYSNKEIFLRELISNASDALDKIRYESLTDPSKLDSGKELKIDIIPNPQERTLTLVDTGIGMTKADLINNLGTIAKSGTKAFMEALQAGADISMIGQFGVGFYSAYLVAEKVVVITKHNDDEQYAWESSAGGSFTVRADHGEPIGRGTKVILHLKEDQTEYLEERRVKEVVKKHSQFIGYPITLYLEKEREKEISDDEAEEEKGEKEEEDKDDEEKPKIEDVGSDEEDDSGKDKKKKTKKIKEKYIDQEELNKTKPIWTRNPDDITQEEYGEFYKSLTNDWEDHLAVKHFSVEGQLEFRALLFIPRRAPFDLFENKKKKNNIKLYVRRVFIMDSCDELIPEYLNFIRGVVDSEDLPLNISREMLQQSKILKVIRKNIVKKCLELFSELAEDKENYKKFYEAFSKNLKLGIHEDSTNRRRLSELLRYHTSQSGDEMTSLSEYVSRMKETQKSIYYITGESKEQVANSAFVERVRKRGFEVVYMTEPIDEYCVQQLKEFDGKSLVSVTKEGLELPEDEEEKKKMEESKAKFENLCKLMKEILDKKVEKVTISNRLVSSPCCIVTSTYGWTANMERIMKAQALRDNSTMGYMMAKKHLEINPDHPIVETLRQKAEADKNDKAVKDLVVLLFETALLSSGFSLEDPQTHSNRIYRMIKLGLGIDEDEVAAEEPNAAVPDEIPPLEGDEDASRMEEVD

SMILES	pKd
CO[C@H]1C=CC=C(C)C(=O)Nc2cc(O)c(N=CCN(C)C)c(c2O)C[C@@H](C)C[C@H](OC)[C@H](N)[C@@H](C)/C=C(\C)[C@@H]1OC(N)=O	< 4.60
CO[C@H]1C=CC=C(C)C(=O)Nc2cc(O)c(N=CCN(C)C)c(c2O)C[C@@H](C)C[C@H](OC)[C@H](NCCF)[C@@H](C)/C=C(\C)[C@@H]1OC(N)=O	< 4.30
CO[C@H]1C[C@H](C)Cc2c(O)c(cc(O)c2N=CCN(C)C)NC(=O)C(C)=CC=C[C@H](OC)[C@@H](OC(N)=O)/C(C)=C/[C@H](C)/C1=N\OCC(=O)O [2-(((8S,9S,12S,14S,16R)-9-(carbamoyloxy)-19-(2-(dimethylamino)ethylamino)-8,14-dimethoxy-4,10,12,16-tetramethyl-3,20,22-trioxo-2-azabicyclo[16.3.1]docosa-1(21),4,6,10,18-pentaen-13-ylidene)aminooxy)acetic acid]	< 4.60
CO[C@H]1[C@@H](OC)C[C@H](C)Cc2c(O)c(cc(O)c2N=CCN(C)C)NC(=O)C(C)=CC=C[C@H](OC)[C@@H](OC(N)=O)/C(C)=C/[C@@H]1C [11-O-Methyl-17-[2-(dimethylamino)ethyl]amino-17-demethoxygeldanamycin]	6.10
CO[C@H]1C[C@H](C)Cc2c(O)c(cc(O)c2N=CCF)NC(=O)C(C)=CC=C[C@H](OC)[C@@H](OC(N)=O)C(C)=C[C@H](C)C1N=O (stereo partly drawn) [(8S,9S,12S,13E,14S,16R)-19-(2-fluoroethylamino)-13-(hydroxyimino)-8,14-dimethoxy-4,10,12,16-tetramethyl-3,20,22-trioxo-2-azabicyclo[16.3.1]docosa-1(21),4,6,10,18-pentaen-9-yl carbamate]	< 4.60
CO[C@H]1[C@@H](OC)C[C@H](C)Cc2c(O)c(cc(O)c2N=CCN2CCCC2)NC(=O)C(C)=CC=C[C@H](OC)[C@@H](OC(N)=O)/C(C)=C/[C@@H]1C [(8S,9S,12S,13R,14S,16R)-8,13,14-trimethoxy-4,10,12,16-tetramethyl-3,20,22-trioxo-19-(2-(pyrrolidin-1-yl)ethylamino)-2-azabicyclo[16.3.1]docosa-1(21),4,6,10,18-pentaen-9-yl carbamate]	6.00
CNCC=Nc1c(O)cc2c(O)c1C[C@@H](C)C[C@H](OC)[C@H](OC(=O)CN)[C@@H](C)/C=C(\C)[C@H](OC(N)=O)[C@@H](OC)C=CC=C(C)C(=O)N2 [(8S,9S,12S,13R,14S,16R)-9-(carbamoyloxy)-8,14-dimethoxy-4,10,12,16-tetramethyl-19-(2-(methylamino)ethylamino)-3,20,22-trioxo-2-azabicyclo[16.3.1]docosa-1(21),4,6,10,18-pentaen-13-yl 2-aminoacetate]	< 4.60
CO[C@H]1C=CC=C(C)C(=O)Nc2cc(O)c(N=CCF)c(c2O)C[C@@H](C)C[C@H](OC)[C@H](OC(=O)CN)[C@@H](C)/C=C(\C)[C@@H]1OC(N)=O [(8S,9S,12S,13R,14S,16R)-9-(carbamoyloxy)-19-(2-fluoroethylamino)-8,14-dimethoxy-4,10,12,16-tetramethyl-3,20,22-trioxo-2-azabicyclo[16.3.1]docosa-1(21),4,6,10,18-pentaen-13-yl 2-aminoacetate]	< 4.60
CO[C@H]1C=CC=C(C)C(=O)Nc2cc(O)c(N=CCN(C)C)c(c2O)C[C@@H](C)C[C@H](OC)[C@H](NCCN(C)C)[C@@H](C)/C=C(\C)[C@@H]1OC(N)=O [(8S,9S,12S,13R,14S,16R)-13,19-bis(2-(dimethylamino)ethylamino)-8,14-dimethoxy-4,10,12,16-tetramethyl-3,20,22-trioxo-2-azabicyclo[16.3.1]docosa-1(21),4,6,10,18-pentaen-9-yl carbamate]	< 4.30
CO[C@H]1C=CC=C(C)C(=O)Nc2cc(O)c(N=CCN(C)C)c(c2O)C[C@@H](C)C[C@H](OC)[C@H](NCC(F)F)[C@@H](C)/C=C(\C)[C@@H]1OC(N)=O [(8S,9S,12S,13R,14S,16R)-13-(2,2-difluoroethylamino)-19-(2-(dimethylamino)ethylamino)-8,14-dimethoxy-4,10,12,16-tetramethyl-3,20,22-trioxo-2-azabicyclo[16.3.1]docosa-1(21),4,6,10,18-pentaen-9-yl carbamate]	5.54
CO[C@H]1C=CC=C(C)C(=O)Nc2cc(O)c(N=CCc3cnc[nH]3)c(c2O)C[C@@H](C)C[C@H](OC)[C@H](O)[C@@H](C)/C=C(\C)[C@@H]1OC(N)=O [(8S,9S,12S,13R,14S,16R)-19-(2-(1H-imidazol-4-yl)ethylamino)-13-hydroxy-8,14-dimethoxy-4,10,12,16-tetramethyl-3,20,22-trioxo-2-azabicyclo[16.3.1]docosa-1(21),4,6,10,18-pentaen-9-yl carbamate]	6.10
CO[C@H]1C=CC=C(C)C(=O)Nc2cc(O)c(N=CCN(C)C)c(c2O)C[C@@H](C)C[C@H](OC)[C@H](NCC(F)(F)F)[C@@H](C)/C=C(\C)[C@@H]1OC(N)=O [(8S,9S,12S,13R,14S,16R)-19-(2-(dimethylamino)ethylamino)-8,14-dimethoxy-4,10,12,16-tetramethyl-3,20,22-trioxo-13-(2,2,2-trifluoroethylamino)-2-azabicyclo[16.3.1]docosa-1(21),4,6,10,18-pentaen-9-yl carbamate]	5.40
C=CC=Nc1c(O)cc2c(O)c1C[C@@H](C)C[C@H](OC)[C@H](OC(=O)CN)[C@@H](C)/C=C(\C)[C@H](OC(N)=O)[C@@H](OC)C=CC=C(C)C(=O)N2 [(8S,9S,12S,13R,14S,16R)-19-(allylamino)-9-(carbamoyloxy)-8,14-dimethoxy-4,10,12,16-tetramethyl-3,20,22-trioxo-2-azabicyclo[16.3.1]docosa-1(21),4,6,10,18-pentaen-13-yl 2-aminoacetate]	< 4.60
CO[C@H]1[C@@H](OC)CC(C)=Cc2c(O)c(cc(O)c2N2CCC2)NC(=O)C(C)=CC=C[C@H](OC)[C@@H](OC(N)=O)/C(C)=C/[C@@H]1C [(8S,9S,12S,13R,14S,16R)-19-(azetidin-1-yl)-8,13,14-trimethoxy-4,10,12,16-tetramethyl-3,20,22-trioxo-2-azabicyclo[16.3.1]docosa-1(21),4,6,10,18-pentaen-9-yl carbamate]	5.40
C=CCO/N=C1/[C@@H](OC)C[C@H](C)Cc2c(O)c(cc(O)c2N=CCN(C)C)NC(=O)C(C)=CC=C[C@H](OC)[C@@H](OC(N)=O)/C(C)=C/[C@@H]1C [(8S,9S,12S,14S,16R)-13-(allyloxyimino)-19-(2-(dimethylamino)ethylamino)-8,14-dimethoxy-4,10,12,16-tetramethyl-3,20,22-trioxo-2-azabicyclo[16.3.1]docosa-1(21),4,6,10,18-pentaen-9-yl carbamate]	< 4.00

The remaining lines, values ahead:

pKd	SMILES
< 4.00	CO[C@H]1C[C@H](C)Cc2c(O)c(cc(O)c2N=CCN(C)C)NC(=O)C(C)=CC=C[C@H](OC)[C@@H](OC(N)=O)/C(C)=C/[C@H](C)/C1=N\OCc1ccccc1
5.54	C=CCO[C@H]1[C@@H](OC)CC(C)=Cc2c(O)c(cc(O)c2N2CCC2)NC(=O)C(C)=CC=C[C@H](OC)[C@@H](OC(N)=O)/C(C)=C/[C@@H]1C [11-O-Allyl-17-(1-azetidinyl)-17-demethoxygeldanamycin]
< 5.00	C=CC=Nc1c(O)cc2c(O)c1C[C@@H](C)C[C@H](OC)C(N=O)[C@@H](C)C=C(C)[C@H](OC(N)=O)[C@@H](OC)C=CC=C(C)C(=O)N2 (stereo partly drawn) [(8S,9S,12S,13E,14S,16R)-19-(allylamino)-13-(hydroxyimino)-8,14-dimethoxy-4,10,12,16-tetramethyl-3,20,22-trioxo-2-azabicyclo[16.3.1]docosa-1(21),4,6,10,18-pentaen-9-yl carbamate]
6.40	CO[C@H]1C=CC=C(C)C(=O)Nc2cc(O)c(N=CCN3CCCC3)c(c2O)C[C@@H](C)C[C@H](OC)[C@H](O)[C@@H](C)/C=C(\C)[C@@H]1OC(N)=O [(8S,9S,12S,13R,14S,16R)-13-hydroxy-8,14-dimethoxy-4,10,12,16-tetramethyl-3,20,22-trioxo-19-(2-(pyrrolidin-1-yl)ethylamino)-2-azabicyclo[16.3.1]docosa-1(21),4,6,10,18-pentaen-9-yl carbamate]
6.00	CO[C@H]1[C@@H](OC)C[C@H](C)Cc2c(O)c(cc(O)c2N=CCN2CCC2)NC(=O)C(C)=CC=C[C@H](OC)[C@@H](OC(N)=O)/C(C)=C/[C@@H]1C [(8S,9S,12S,13R,14S,16R)-19-(2-(azetidin-1-yl)ethylamino)-8,13,14-trimethoxy-4,10,12,16-tetramethyl-3,20,22-trioxo-2-azabicyclo[16.3.1]docosa-1(21),4,6,10,18-pentaen-9-yl carbamate]
6.40	CO[C@H]1C=CC=C(C)C(=O)Nc2cc(O)c(N=CCN3CCC3)c(c2O)C[C@@H](C)C[C@H](OC)[C@H](O)[C@@H](C)/C=C(\C)[C@@H]1OC(N)=O [(8S,9S,12S,13R,14S,16R)-19-(2-(azetidin-1-yl)ethylamino)-13-hydroxy-8,14-dimethoxy-4,10,12,16-tetramethyl-3,20,22-trioxo-2-azabicyclo[16.3.1]docosa-1(21),4,6,10,18-pentaen-9-yl carbamate]
< 5.00	CO[C@H]1C=CC=C(C)C(=O)Nc2cc(O)c(N=CCN(C)C)c(c2O)C[C@@H](C)C[C@H](OC)[C@H](NCCC(F)(F)F)[C@@H](C)/C=C(\C)[C@@H]1OC(N)=O [(8S,9S,12S,13R,14S,16R)-19-(2-(dimethylamino)ethylamino)-8,14-dimethoxy-4,10,12,16-tetramethyl-3,20,22-trioxo-13-(3,3,3-trifluoropropylamino)-2-azabicyclo[16.3.1]docosa-1(21),4,6,10,18-pentaen-9-yl carbamate]
< 4.60	C=CC=Nc1c(O)cc2c(O)c1C[C@@H](C)C[C@H](OC)[C@H](OC(=O)CCN)[C@@H](C)/C=C(\C)[C@H](OC(N)=O)[C@@H](OC)C=CC=C(C)C(=O)N2 [(8S,9S,12S,13R,14S,16R)-19-(allylamino)-9-(carbamoyloxy)-8,14-dimethoxy-4,10,12,16-tetramethyl-3,20,22-trioxo-2-azabicyclo[16.3.1]docosa-1(21),4,6,10,18-pentaen-13-yl 3-aminopropanoate]
< 4.00	CO[C@H]1C[C@H](C)Cc2c(O)c(cc(O)c2N=CCN(C)C)NC(=O)C(C)=CC=C[C@H](OC)[C@@H](OC(N)=O)/C(C)=C/[C@H](C)/C1=N\OCCN(C)C [(8S,9S,12S,14S,16R)-13-(2-(dimethylamino)ethoxyimino)-19-(2-(dimethylamino)ethylamino)-8,14-dimethoxy-4,10,12,16-tetramethyl-3,20,22-trioxo-2-azabicyclo[16.3.1]docosa-1(21),4,6,10,18-pentaen-9-yl carbamate]

From BindingDB's records for doi:10.1021/jm900098v (Kosan Biosciences, 2009)
